Here are results for eleven molecules from patent US20230203059A1, “MACROCYCLIC JAK INHIBITOR AND USES THEREOF” (Biopolar Hongye (Guangdong) Pharmaceutical Co. Ltd., priority 2020, published 2023).

Format in all cases: biochemical
One experiment concerns the target JAK2 (Homo sapiens, UniProt O60674). In words: JAK kinase activity, homogeneous time-resolved fluorescence (JAK2 reaction system). To be noted: ATP 2 μM, JAK2 protein 0.01 ng/μL. The gist of the method: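 IC50 derived by Hill-equation fit of the 665/615 nm time-resolved fluorescence ratio after EDTA-containing detection mix with anti-phosphosubstrate antibody. Preceding 1 h reaction contained 2 μM ATP, 0.01 ng/μL JAK2, substrate, 50 mM Hepes pH 7.0, 5 mM MgCl2, 1 mM DTT.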

A further experiment deals with JAK1 (Homo sapiens, UniProt P23458). In words: JAK kinase activity, homogeneous time-resolved fluorescence (JAK1 reaction system). To be noted: ATP 2 μM, JAK1 protein 0.2 ng/μL; read-out: JAK 1 activity. Put shortly: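 Kinase activity read as the 665 nm/615 nm time-resolved fluorescence ratio (320 nm excitation) after EDTA-containing antibody and XL-615 addition. Reaction ran 1 h at pH 7.0 (Hepes, MgCl2, DTT) with 0.2 ng/μL JAK1 and ATP at 2 μM. IC50 derived by Hill-slope fit.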

Another experiment addresses TYK2 (Homo sapiens, UniProt P29597). In words: JAK kinase activity, homogeneous time-resolved fluorescence (TYK2 reaction system). To be noted: ATP 2 μM, TYK2 protein 0.2 ng/μL; read-out: TYK 2 activity. The gist of the method:
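Activity read as the 665 nm/615 nm ratio after adding EDTA-containing detection mix with anti-phospho-substrate antibody and XL-615. Beforehand, 0.2 ng/μL TYK2, 2 μM ATP, substrate and compound reacted 1 h in pH 7.0 Hepes buffer with MgCl2 and DTT. IC50 fitted with Hill-slope equation.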

The next experiment has as its target T1, JAK3 (Homo sapiens, UniProt P52333).
T1 sequence (P52333 1-1124): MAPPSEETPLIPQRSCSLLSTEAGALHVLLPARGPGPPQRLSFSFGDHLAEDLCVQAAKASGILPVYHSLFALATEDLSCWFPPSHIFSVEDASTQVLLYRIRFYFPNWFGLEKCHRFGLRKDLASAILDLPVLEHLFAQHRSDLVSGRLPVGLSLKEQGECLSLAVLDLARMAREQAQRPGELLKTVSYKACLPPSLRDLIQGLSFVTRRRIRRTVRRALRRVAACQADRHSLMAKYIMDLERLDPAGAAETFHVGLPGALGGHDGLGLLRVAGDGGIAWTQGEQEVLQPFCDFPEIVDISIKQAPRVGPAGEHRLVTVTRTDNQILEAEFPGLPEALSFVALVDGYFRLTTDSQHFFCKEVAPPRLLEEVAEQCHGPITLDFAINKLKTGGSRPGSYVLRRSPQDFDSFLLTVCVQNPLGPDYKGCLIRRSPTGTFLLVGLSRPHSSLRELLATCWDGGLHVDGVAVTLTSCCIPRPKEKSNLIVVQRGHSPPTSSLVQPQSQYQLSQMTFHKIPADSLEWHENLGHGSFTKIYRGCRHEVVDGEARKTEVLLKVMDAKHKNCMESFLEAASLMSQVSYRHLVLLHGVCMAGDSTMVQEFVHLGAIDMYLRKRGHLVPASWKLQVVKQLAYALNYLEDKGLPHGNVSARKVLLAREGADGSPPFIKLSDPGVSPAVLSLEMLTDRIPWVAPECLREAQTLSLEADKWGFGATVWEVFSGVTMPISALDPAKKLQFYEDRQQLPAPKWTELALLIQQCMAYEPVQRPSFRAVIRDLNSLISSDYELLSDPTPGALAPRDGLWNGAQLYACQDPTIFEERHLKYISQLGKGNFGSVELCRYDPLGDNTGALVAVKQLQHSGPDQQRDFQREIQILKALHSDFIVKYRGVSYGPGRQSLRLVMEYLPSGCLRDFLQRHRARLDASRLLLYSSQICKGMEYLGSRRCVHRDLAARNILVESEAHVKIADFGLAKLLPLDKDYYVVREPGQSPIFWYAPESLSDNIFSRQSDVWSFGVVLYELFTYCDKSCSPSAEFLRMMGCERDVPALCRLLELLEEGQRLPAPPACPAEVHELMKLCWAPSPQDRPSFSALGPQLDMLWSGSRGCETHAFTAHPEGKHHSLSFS
In words: JAK kinase activity, homogeneous time-resolved fluorescence (JAK3 reaction system). To be noted: ATP 2 μM, JAK3 protein 0.04 ng/μL; read-out: JAK 3 activity.

pIC50: −log10 of the molar value.

JAK2, sequence (O60674 whole entry): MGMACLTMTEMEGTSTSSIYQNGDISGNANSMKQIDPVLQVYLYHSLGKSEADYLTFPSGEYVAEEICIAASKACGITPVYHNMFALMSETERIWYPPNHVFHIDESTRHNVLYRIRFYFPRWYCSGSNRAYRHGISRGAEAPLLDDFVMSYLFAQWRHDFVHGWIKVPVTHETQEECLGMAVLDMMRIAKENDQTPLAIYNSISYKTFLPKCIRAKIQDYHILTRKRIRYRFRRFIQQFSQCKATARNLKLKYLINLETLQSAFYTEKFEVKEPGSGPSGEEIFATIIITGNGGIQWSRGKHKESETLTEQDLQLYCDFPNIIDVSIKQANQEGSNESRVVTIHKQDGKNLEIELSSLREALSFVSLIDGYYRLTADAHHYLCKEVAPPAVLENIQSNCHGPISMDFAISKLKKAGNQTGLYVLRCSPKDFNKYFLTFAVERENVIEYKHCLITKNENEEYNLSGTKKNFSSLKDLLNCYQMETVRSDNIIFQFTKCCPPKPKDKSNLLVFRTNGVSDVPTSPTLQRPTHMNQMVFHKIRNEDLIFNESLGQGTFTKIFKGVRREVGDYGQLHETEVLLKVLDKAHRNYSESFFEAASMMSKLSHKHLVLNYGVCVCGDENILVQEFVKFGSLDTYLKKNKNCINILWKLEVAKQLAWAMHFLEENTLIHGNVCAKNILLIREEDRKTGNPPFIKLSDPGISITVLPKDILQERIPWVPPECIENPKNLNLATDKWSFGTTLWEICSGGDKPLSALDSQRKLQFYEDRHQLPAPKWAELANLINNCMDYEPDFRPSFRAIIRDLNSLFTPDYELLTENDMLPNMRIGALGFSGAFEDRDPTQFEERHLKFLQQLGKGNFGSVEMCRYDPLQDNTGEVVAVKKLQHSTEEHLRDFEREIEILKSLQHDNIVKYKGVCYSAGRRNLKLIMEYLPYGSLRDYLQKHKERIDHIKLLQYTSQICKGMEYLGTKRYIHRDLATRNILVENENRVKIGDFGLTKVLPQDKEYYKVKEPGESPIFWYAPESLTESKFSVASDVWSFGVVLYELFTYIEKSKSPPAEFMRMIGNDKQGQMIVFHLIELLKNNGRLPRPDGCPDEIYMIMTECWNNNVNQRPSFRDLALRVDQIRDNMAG
TYK2, sequence (P29597 whole entry): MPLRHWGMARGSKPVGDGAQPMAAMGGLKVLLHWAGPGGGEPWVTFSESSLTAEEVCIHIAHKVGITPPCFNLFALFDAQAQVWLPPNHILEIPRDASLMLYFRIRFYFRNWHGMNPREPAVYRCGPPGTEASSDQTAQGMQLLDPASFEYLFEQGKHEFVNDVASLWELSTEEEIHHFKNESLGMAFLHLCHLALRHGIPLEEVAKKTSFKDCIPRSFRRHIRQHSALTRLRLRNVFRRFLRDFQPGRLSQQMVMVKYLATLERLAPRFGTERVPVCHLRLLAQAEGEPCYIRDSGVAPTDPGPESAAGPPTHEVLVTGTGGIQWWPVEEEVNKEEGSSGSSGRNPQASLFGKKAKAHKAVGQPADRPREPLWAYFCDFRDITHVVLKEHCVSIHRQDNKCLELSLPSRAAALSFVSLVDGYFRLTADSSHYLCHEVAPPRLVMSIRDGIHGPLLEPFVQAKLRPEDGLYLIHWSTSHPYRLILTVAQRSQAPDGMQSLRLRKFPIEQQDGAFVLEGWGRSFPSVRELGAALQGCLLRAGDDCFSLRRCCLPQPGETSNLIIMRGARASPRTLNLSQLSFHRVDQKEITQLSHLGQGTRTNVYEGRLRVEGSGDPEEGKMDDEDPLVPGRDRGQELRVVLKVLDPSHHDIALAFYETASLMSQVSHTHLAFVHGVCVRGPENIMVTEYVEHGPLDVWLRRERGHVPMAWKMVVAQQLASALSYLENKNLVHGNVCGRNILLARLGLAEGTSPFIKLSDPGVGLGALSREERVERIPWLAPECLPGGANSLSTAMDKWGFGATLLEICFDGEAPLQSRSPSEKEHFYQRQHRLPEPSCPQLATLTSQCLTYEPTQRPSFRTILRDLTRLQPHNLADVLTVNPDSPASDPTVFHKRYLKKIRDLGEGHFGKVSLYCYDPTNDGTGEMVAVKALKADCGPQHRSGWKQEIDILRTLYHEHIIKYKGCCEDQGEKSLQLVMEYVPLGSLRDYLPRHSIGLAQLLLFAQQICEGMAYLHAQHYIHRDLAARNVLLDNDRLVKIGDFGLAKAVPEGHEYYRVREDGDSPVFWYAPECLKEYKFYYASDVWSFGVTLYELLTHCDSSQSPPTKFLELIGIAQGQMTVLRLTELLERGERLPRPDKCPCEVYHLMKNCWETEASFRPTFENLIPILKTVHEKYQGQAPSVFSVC
JAK1, sequence (P23458 whole entry): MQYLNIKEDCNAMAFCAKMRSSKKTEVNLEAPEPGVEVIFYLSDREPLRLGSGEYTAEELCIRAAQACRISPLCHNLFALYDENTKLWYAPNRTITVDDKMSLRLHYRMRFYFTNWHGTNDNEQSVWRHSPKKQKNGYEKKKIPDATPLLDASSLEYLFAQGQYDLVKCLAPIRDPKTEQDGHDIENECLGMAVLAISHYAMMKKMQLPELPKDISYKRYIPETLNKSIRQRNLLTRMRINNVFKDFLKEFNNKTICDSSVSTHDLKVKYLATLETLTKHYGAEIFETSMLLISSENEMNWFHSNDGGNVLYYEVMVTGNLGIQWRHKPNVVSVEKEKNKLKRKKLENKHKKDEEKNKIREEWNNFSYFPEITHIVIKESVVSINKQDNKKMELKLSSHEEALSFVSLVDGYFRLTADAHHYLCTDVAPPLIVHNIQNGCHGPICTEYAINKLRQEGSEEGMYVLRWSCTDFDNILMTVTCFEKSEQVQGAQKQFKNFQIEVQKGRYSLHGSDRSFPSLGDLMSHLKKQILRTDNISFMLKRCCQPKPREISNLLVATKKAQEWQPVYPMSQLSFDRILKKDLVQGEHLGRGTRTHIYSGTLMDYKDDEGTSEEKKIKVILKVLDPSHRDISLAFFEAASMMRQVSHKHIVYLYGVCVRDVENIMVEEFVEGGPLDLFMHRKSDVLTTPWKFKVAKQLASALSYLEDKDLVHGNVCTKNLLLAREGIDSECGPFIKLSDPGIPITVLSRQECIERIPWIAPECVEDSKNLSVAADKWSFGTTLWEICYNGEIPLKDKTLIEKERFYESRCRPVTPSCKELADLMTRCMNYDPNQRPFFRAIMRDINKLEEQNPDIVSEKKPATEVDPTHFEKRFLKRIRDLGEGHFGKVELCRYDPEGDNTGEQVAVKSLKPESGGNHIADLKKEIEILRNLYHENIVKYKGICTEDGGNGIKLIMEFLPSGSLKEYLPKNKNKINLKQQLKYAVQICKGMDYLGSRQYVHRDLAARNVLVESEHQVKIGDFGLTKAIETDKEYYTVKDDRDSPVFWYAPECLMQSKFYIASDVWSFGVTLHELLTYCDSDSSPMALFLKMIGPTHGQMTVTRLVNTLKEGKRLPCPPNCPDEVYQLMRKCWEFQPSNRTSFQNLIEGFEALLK

For the molecule `Cc1cc2ccc1NC(=O)c1ccc(c(N)c1)-c1ccnc(n1)Nc1ccc(OC3CC3)c(c1)CO2` [Example 207, 1^2-amino-4^4-cyclopropoxy-7^3-meth-yl-6-oxa-3,8-diaza-2(4,2)-pyrimidina-1,7(1,4),4(1,3)-tribenzenacyclo-nonaphane-9-one], the pIC50 was 6.00 to 7.00 on JAK2, 6.00 to 7.00 at JAK1, 5.00 to 6.00 on TYK2 and 7.00 to 7.96 on JAK3.

As for `Nc1cc2ccc1-c1ccnc(n1)Nc1ccc(OCC3CC3)c(c1)COc1ccc(cc1)NC2=O` [Example 208, 1^2-amino-4^4-(cyclopropylmethoxy)-6-oxa-3,8-diaza-2(4,2)-pyrimidina-1,7(1,4),4(1,3)-tribenzenecyclo-nonaphane-9-one], the pIC50 against JAK2 was 5.00 to 6.00; at JAK1, below 5.00; on TYK2 it was below 5.00; on JAK3, 7.00 to 7.96.

Turning to `O=C1Nc2ccc(cc2)OCc2cc(ccc2OCC2CC(F)(F)C2)Nc2nccc(n2)-c2ccc1cc2[N+](=O)[O-]` [Example 209, 4^4-((3,3-difluorocyclobutyl)methoxy)-1^2-nitro-6-oxa-3,8-diaza-2(4,2)-pyrimidina-1,7(1,4),4(1,3)-tri-benzenacyclononaphane-9-one], the pIC50 against JAK2 was 5.00 to 6.00; on JAK1, below 5.00; at TYK2, below 5.00; at JAK3 it was 5.00 to 6.00.

Turning to `Nc1cc2ccc1-c1ccnc(n1)Nc1ccc(OCC3CC(F)(F)C3)c(c1)COc1ccc(cc1)NC2=O` [Example 210, 1^2-amino-4^4-((3,3-difluorocyclobutyl)methoxy)-6-oxa-3,8-diaza-2(4,2)-pyrimidina-1,7(1,4),4(1,3)-tribenz-enacyclononaphane-9-one], the pIC50 at JAK2 was below 5.00; at JAK1, below 5.00; on TYK2 it was below 5.00; at JAK3 it was 7.00 to 7.96.

On to `Nc1cc2ccc1-c1ccnc(n1)Nc1ccc(OCC3CCOC3)c(c1)COc1ccc(cc1)NC2=O` (centres unmarked) [Example 211, 1^2-amino-4^4-((tetrahydrofuran-3-yl)methoxy)-6-oxa-3,8-diaza-2(4,2)-py-rimidina-1,7(1,4),4(1,3)-tribenzena-cyclononaphane-9-one], for which the pIC50 against JAK2 was 6.00 to 7.00; at JAK1, 6.00 to 7.00; at TYK2, 5.00 to 6.00; at JAK3, 7.00 to 7.96.

Consider `O=C1Nc2ccc(cc2)OCc2cc(ccc2OCC2CCCOC2)Nc2nccc(n2)-c2ccc1cc2[N+](=O)[O-]` (centres unmarked) [Example 212, 1^2-nitro-4^4-((tetrahydro-2H-pyran-3-yl)methoxy)-6-oxa-3,8-diaza-2(4,2)-pyrimidina-1,7(1,4),4(1,3)-tri-benzenacyclononaphane-9-one], for which the pIC50 was 5.00 to 6.00 against JAK2, 5.00 to 6.00 on JAK1, below 5.00 on TYK2 and 5.00 to 6.00 at JAK3.

For the molecule `Nc1cc2ccc1-c1ccnc(n1)Nc1ccc(OCC3CCCOC3)c(c1)COc1ccc(cc1)NC2=O` (centres unmarked) [Example 213, 1^2-amino-4^4-((tetrahydro-2H-pyran-3-yl)methoxy)-6-oxa-3,8-diaza-2(4,2)-pyrimidina-1,7(1,4),4(1,3)-tri-benzenacyclononaphane-9-one], the pIC50 against JAK2 was 5.00 to 6.00; at JAK1, 5.00 to 6.00; on TYK2 it was below 5.00; at JAK3, 7.00 to 7.96.

Take `Nc1cc2ccc1-c1ccnc(n1)Nc1ccc(OCC3COC3)c(c1)COc1ccc(cc1)NC2=O` [Example 214, 1-amino-4^4-(oxetan-3-ylmethoxy)-6-oxa-3,8-diaza-2(4,2)-pyrimidina-1,7(1,4)4(1,3)-tribenzenacyclonona-phane-9-one]: the pIC50 is 6.00 to 7.00 against JAK2, 5.00 to 6.00 at JAK1, 5.00 to 6.00 on TYK2 and 7.00 to 7.96 at JAK3.

Turning to `O=C1Nc2ccc(cc2)OCc2cc(ccc2OC2CCCC2)Nc2nccc(n2)-c2ccc1cc2O` [Example 215, 4^4-(cyclopentoxy)-1^2-hydroxy-6-oxa-3,8-diaza-2 (4,2)-pyrimidina-1,7(1,4),4(1,3)-tribenzenacyclononaphane-9-one], the pIC50 is 6.00 to 7.00 on JAK2, 5.00 to 6.00 at JAK1, 5.00 to 6.00 on TYK2 and 7.00 to 7.96 on JAK3.

Turning to `O=C1Nc2ccc(cc2)OCc2cc(ccc2F)Nc2nccc(n2)-c2ccc1cc2O` [Example 216, 4^4-fluoro-1^2-hydroxy-6-oxa-3,8-dia-za-2(4,2)-pyrimidina-1,7(1,4),4(1,3)-tribenzenacyclononaphane-9-one], the pIC50 against JAK2 was 6.00 to 7.00; on JAK1 it was 6.00 to 7.00; at TYK2, 5.00 to 6.00; at JAK3 it was 7.00 to 7.96.

Turning to `O=C1Nc2ccc(cc2)OCc2cc(ccc2OC2CC2)Nc2nccc(n2)-c2ccc1cc2O` [Example 217, 4^4-cyclopropoxy-1^2-hydroxy-6-oxa-3,8-diaza-2(4,2)-pyrimidina-1,7(1,4),4(1,3)-tribenzenacyclononaphane-9-one], the pIC50 at JAK2 was 6.00 to 7.00; at JAK1, 6.00 to 7.00; on TYK2 it was 5.00 to 6.00; at JAK3, 7.00 to 7.96.
